Results as given in patent publication US20200032249A1, “LABELING, ISOLATION, & ANALYSIS OF RNA FROM RARE CELL POPULATIONS” (priority 2017, published 2020).

Key:
[1] = tested on: CD/UPRT-expressing MDA231 cells; experiment: expression of representative human genes in mouse lung lysates by RT-PCR; assay type: in vivo; conditions: 250 mg/kg, 8 h, mouse lungs
Experimental: FIG. 5 a-e. Flura-tagging enables transcriptional profiling from micrometastatic lung xenografts. FIG. 5a—Representative H & E stained sections of mouse lungs harboring micrometastases (arrows) used in Flura-tagging experiments. […] Scale bar=2 mm (top), 100 μM (bottom). FIG. 5b—Representative micrometastasis in the context of lung vasculature. MDA231 cells were stained with anti-GFP antibody, blood vessels with anti-CD31 antibody and nuclei (DNA) with Hoechst 33258. Scale bar=50 μM. FIG. 5c—Quantification of the number of cells per micrometastasis per tissue section in engrafted lungs of mice used in the Flura-tagging experiments. The number of nuclei in individual micrometastases in lung sections from 16 separate mice were counted. […] Expression of the indicated representative genes in the lung lysates containing control MDA231 cells or MDA231 cells expressing CD/UPRT and treated with 250 mg/kg 5-FC for 8 h, was measured by RT-PCR using human specific primers (n=3). […] FIG. 5e—Flow cytometric quantification of the number of RFP+ MDA231 cells in mouse lung in the Flura-tagging experiments. […]
Mouse experiments were performed following the protocols approved by the MSKCC Institutional Animal Care and Use Committee (IACUC). […] Proliferation of injected cancer cells were quantified using bioluminescence imaging following retroorbital injection of luciferin. […]

MDA231 cells = experiment: stress granule formation by G3BP immunostaining; assay type: cell-based; conditions: for treatment time after which cells started to form stress granules: human
Experimental: FIG. 2a-b. Flura-tagging has minimal cytotoxicity. FIG. 2a—Effect of Flura-tagging on stress granule formation. MDA231 cells were treated with 5-FC for the indicated times, and the formation of stress granules was detected by G3BP immunostaining. Control cells were either treated with water or sodium arsenite (Arsenite) for one hour. Arrows indicate stress granules (n=3). Scale bar=20 μM. FIG. 2b—Effect of Flura-tagging on transcription. RNA expression in control cells was compared to CD/UPRT-expressing cells treated with the indicated concentrations of 5-FC for 4 h or 12 h. Each dot represents a gene, with the outer/lighter gray dots indicating genes showing more than 2-fold differential expression, as determined by DESeq2 (n=2). The dotted line represents the four-fold cutoff mark.
5-FU is extensively used as a chemotherapeutic agent for the treatment of solid tumors, based on its ability to induce cancer cell death by inhibiting thymidylate synthase and by causing DNA and RNA damage (12-14). It was therefore crucial to test whether our 5-FU-tagging method, which is based on low concentrations of 5-FC and short incubation time periods, has significant cytotoxic effects under our experimental conditions. CD/UPRT-expressing cells were treated with 5-FC at concentrations of up to 250 μM for up to 12 h (“Flura-tagged” cells), and the effects of this treatment on RNA damage response and transcriptional regulation were investigated.
A key feature of the RNA damage response is the formation of stress granules (15). Ras GTPase-activating protein-binding protein 1 (G3BP), a key component of stress granules, forms distinct foci during stress granule formation (12). We determined the dose- and time-dependent effect of 5-FC treatment on stress granule formation by immunostaining of the cells with anti-G3BP antibody. […] The 5-FC-treated cells started to form stress granules only after 24 h of treatment with 1 mM 5-FC, a concentration four times higher than the maximal concentration of 5-FC used for Flura-tagging, or after 48 h of 5-FC treatment at lower concentrations (FIG. 2a).
Human embryonic kidney transformed with […] (293T) and human breast cancer MDA-MB-231 (MDA231) cells were cultured in DMEM High Glucose medium (Wheaton) supplemented with 10% Fetal Bovine Serum (Clontech, Catalog number 631106) supplemented with 2 mM L-Glutamine. All cell lines have been routinely tested for mycoplasma contamination. For the induction of CD or CD and UPRT, cells were treated with 1 μg/ml doxycycline for 24 h. For Fluorouracil tagging, cells were treated with 250 μM of 5-FC or 5-FU unless indicated. Where indicated, 125 μM thymine was added together with 5-FC. […]

Structure (SMILES): Nc1nc(=O)[nH]cc1F [5-FC, 5-fluorocytosine]
- range of expression of representative human genes vs control MDA231 cells [1]: ≤ 2 fold
- stress granules after 12 h (MDA231 cells): did not contain stress granules
- treatment time after which cells started to form stress granules (MDA231 cells): 48 h
- treatment time after which cells started to form stress granules (MDA231 cells; 1 mM): 24 h
